Experimental data: patent publication US20220125900A1, “NEOANTIGENS IN CANCER” (priority 2019, published 2022)

Tested on: IFNγ response of splenocytes
Assay: IFNγ ELISpot assay on splenocytes of vaccinated Balb/c mice
Type: in vivo
Conditions: splenocytes of mice vaccinated with Ancer-selected CT26 Neoantigen Peptides+Poly-ICLC, stimulated overnight; positive = >50 SFC/million over background and stimulation index >2-fold
Excerpt: Balb/c mice were separated into three groups: A) Vehicle control; B) Ancer™-selected CT26 Neoantigen Peptides+adjuvant; C) Ancer™-selected CT26 Neoantigen Peptides+JANUSMATRIX™ MHC class II selected peptides+adjuvant. All vaccines were formulated with the addition of the adjuvant Poly-ICLC. Poly-ICLC, also known as Hiltonol, is a synthetic double-stranded RNA (dsRNA) agonist for pattern recognition receptors (PRRs), and TLR3 agonist. Groups A, B, and C received an initial vaccination with subsequent boosts of vaccine at 2- and 4-weeks post initial vaccination. All mice are sacrificed at 7-10 days after the final boost and spleens were harvested for splenocyte isolation and IFNγ ELISpot assay.
Group A: 50 ug Poly-ICLC in 200 uL
Group B: 20 Ancer™-selected CT26 Neoantigen Peptides at 5 ug/peptide, 100 ug total peptide, 50 ug Poly-ICLC, 200 uL […]
Isolated splenocytes were plated and stimulated with Ancer™-selected CT26 Neoantigen Peptides (CT26 pool), JANUSMATRIX™ selected peptides (CT26-Treg_pool), class I peptide pool, as well as individual Ancer™-selected CT26 Neoantigen peptide CT26-1 (CT26_peptide 1) and CT26-20 ([…]). Plates were incubated overnight and then read. […] Statistical significance was determined by Student's T-test; per mouse—antigen vs. no antigen stimulus, as well as group comparisons (p<0.05).

Substance: Ac-LQARLTSYETLK-NH2 [CT26-1]
- epitope-specific IFNγ response on recall stimulation (immunogenic): significant epitope-specific IFNγ response
